In general, IC50 refers to the midpoint of a concentration-inhibition curve. A high value points to lower potency.

Drawing on PMC7835894 (Molecules, 2021), this text covers IC50 for one compound.

The test deals with Caco-2. Put plainly: MTT antiproliferation assay. The conditions noted are these: Homo sapiens; Caco-2, MTT, 24 h, single agent, mean ± SEM. Type of test: cell-based, human. On the procedure:
The antiproliferation and cytotoxicity were assessed using 3-(4,5-dimethylthiazol-2-yl)-2,5-diphenyltetrazolium bromide (MTT, Serva) colorimetric assay. To investigate the antiproliferation, all cell lines were seeded at a density of 20,000 cells per well in 96-well plates and allowed to adhere overnight. […] These concentrations were prepared by diluting the stock solutions with serum-free culture media. The negative control cells were those treated with 0.1% DMSO solvent alone. The treated cells were handled in reduced light and maintained under standard culture growth conditions for 24 h. After the incubation period, MTT powder was prepared as a stock solution (5 mg/mL) and 20 μL of the MTT working reagent (final concentration 0.5 mg/mL) was added to each well. This was followed by incubation with MTT reagent for 4 h in a humidified atmosphere (37 °C, 5% CO2) with subsequent addition of 150 μL of DMSO solubilizing solvent and incubation for 20 min. The absorbance of solubilized violet formazan crystals was measured at 540 nm with Biotek 800 TS microplate reader. IC50 was calculated as the concentration of retinoid that produced 50% cell growth inhibition. For cytotoxicity assessment, WI-38 normal human fibroblast cells were used for the calculation of SI which is the ratio of IC50 retinoid (WI-38)/IC50 retinoid (cancer cell line).

The compound `O=c1[nH]cc(F)c(=O)[nH]1` [5-FU, 5-fluorouracil, reference compound] displayed an IC50 of 18.4 ± 0.6 µM.
